Results as given in PMC5484788, “Development of a common carp (Cyprinus carpio) pregnane X receptor (cPXR) transactivation reporter assay and its activation by azole fungicides and pharmaceutical chemicals” (Toxicology in Vitro, 2017).
Like-named read-outs stand apart in the source and are kept apart here.

Assays:
hPXR = biological target: T1, hPXR (Homo sapiens, UniProt O75469); assay: human PXR (hPXR) luciferase transactivation reporter assay, pGL4.24-6xPXRE reporter, COS-7 cells; conditions: for maximal effect (Emax) hPXR, times that of the control: COS-7 cells, 44 h, relative to DMSO control
T1 sequence (O75469 1-473 isoform O75469-7): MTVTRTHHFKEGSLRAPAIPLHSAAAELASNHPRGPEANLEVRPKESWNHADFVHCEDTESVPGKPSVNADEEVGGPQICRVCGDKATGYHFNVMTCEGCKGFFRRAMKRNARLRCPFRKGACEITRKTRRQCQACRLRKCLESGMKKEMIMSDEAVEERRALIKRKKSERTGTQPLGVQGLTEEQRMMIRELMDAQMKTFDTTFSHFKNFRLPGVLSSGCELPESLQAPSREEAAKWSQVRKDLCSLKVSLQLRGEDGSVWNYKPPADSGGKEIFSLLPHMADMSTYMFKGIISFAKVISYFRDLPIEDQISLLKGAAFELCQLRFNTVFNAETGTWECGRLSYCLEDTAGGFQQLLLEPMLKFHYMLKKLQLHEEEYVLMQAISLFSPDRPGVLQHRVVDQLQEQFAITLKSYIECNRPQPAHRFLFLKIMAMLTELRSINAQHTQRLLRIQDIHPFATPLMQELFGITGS
Procedure: Human PXR (hPXR) clone cDNA was purchased from Promega. […] The following PCR protocol was employed: 21 cycles of denaturation at 98 °C for 10 s, annealing at 60 °C for 5 s and elongation at 72 °C for 15 s. The purified product was then ligated into the eukaryotic expression vector pcDNA3.1(+) (Invitrogen) using the correspondent restriction enzymes and T4 DNA ligase (Promega).
(§1) A reporter vector was constructed based on several variations of the PXR response element (PXRE; Fig. 1). The PXRE occurs either as a direct or everted repeat of the consensus motif […], spaced by between 3 and 8 nucleotides. The PXRE sequence created here was based on that reported in [Xie et al. (2000)]. […] To maximise reporter efficiency, a further PXRE motif was added either side of the previously generated long chain oligo using PCR. […] The following PCR conditions were employed: 21 cycles of denaturation at 98 °C for 10 s, annealing at 60 °C for 5 s and elongation at 72 °C for 30 s. After purification, and using the appropriate restriction enzymes KpnI and HindIII, the obtained fragment was subsequently ligated into the pGL4.24[luc2P/minP] vector (Promega) which contains the firefly (Photinus pyralis) luciferase (luc2P) gene, to create the pGL4.24-6xPXRE reporter construct.
(§2) The cells were maintained at subconfluent densities and sub-cultured when reaching 80% confluency.
(§3) For transfection assays, cells were seeded in 24-well plates at 5 × 10^4 cells well^− 1 in phenol-red free DMEM (supplemented with 10% charcoal/dextran-treated foetal bovine serum (Hyclone). After 24 h, the cells were transiently transfected with 200 ng of either pcDNA3.1(+)/cPXR or pcDNA3.1(+)/hPXR, 400 ng of reporter construct (either MMTV/luc2/pGL4 (Promega) or pGL4.24-6xPXRE) and 100 ng of pRL-TK (driving the Renilla reniformis luciferase gene as an internal control to normalise for variations in transfection efficiency) using Fugene HD transfection reagent (Promega) in serum-free medium according to the manufacturer's protocol. Four hours after transfection, cells were treated with PXR agonists (see below). Forty-eight hours after transfection, cells were lysed and the luciferase activities of the cells were measured by a chemiluminescence assay with Dual-Luciferase Reporter Assay System (Promega) according to the manufacturer's instructions. Luminescence was measured using an Infinite 200 Pro plate reader (Tecan, Grödig, Austria). Promoter activity was calculated as firefly (Photinus pyralis)-luciferase activity/sea pansy (R. reniformis)-luciferase activity. All transfections were done at least three times, employing triplicate sample points in each experiment.
(§4) In addition to the pGL4.24-6xPXRE reporter construct, a commercially available MMTV/luc2/pGL4 reporter vector (Promega) was tested as a reporter plasmid (i.e. for PXRE function), as it is known to contain various nuclear receptor response elements in the promoter region.

cPXR = cPXR (Cyprinus carpio, UniProt A0A1P8P0E9); assay: carp PXR (cPXR) luciferase transactivation reporter assay, pGL4.24-6xPXRE reporter, COS-7 cells; conditions: for transactivation of cPXR (result in words): concentration-response 10^-11 to 10^-5 M, pGL4.24-6xPXRE reporter
Procedure: For this, cDNA was reverse transcribed from 1 μg of carp liver total RNA as described above and amplified using the Advantage 2 DNA polymerase mix (Clontech) according to the manufacturer's instructions. The resulting PCR product was purified and sequenced to confirm the full sequence length and sub-cloned into pGEM-T Easy vector (Promega) following the manufacturer's recommendations. Plasmid DNA was isolated using the Wizard Plus SV minipreps DNA Purification system (Promega) according to manufacturer's instructions. Using the BamHI and EcoRV sites, the cPXR sequences was subsequently ligated into the eukaryotic expression vector pcDNA3.1(+) (Invitrogen) using the correspondent restriction enzymes (New England Biolabs, Hitchin, UK) and T4 DNA ligase (Promega).
as §1, §2, §3, §4

zebrafish PXR = conditions: ref Bainy et al., 2013, cited from earlier work
FHM PXR = system: FHM PXR; parameters: method as in Milnes et al., 2008; conditions: exposure to 50 μM; ref Milnes et al., 2008; cited from earlier work
PXR from the pufferfish = conditions: 50 μM; ref Milnes et al., 2008; cited from earlier work
COS-7 cells = assay: toxicity to COS-7 cells in the transactivation assays (inhibited cell growth); assay type: cell-based; conditions: 100 μM, in both cPXR and hPXR assays
[1] = concentration-response 10^-11 to 10^-5 M, pGL4.24-6xPXRE reporter

cPXR, sequence (A0A1P8P0E9 entry or part of it): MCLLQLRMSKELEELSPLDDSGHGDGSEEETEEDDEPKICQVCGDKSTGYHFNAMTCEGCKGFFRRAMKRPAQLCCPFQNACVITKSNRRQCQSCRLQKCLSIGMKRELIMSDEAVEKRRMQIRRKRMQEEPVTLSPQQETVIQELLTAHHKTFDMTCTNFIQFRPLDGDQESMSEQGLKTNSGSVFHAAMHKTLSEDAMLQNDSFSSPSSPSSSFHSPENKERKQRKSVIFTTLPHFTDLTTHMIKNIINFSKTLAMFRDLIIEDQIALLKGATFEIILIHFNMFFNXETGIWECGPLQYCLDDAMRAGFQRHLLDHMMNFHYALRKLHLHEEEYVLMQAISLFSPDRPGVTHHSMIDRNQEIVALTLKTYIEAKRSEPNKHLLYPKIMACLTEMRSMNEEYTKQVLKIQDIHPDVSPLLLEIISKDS

Structure (SMILES) | transactivation of hPXR (result in words) (hPXR; [1]) | transactivation of cPXR (result in words) (cPXR) | also measured
CC(C)NCC(O)COc1ccc(CC(N)=O)cc1 (stereo not shown) [ATN, atenolol] | did not induce transactivation | did not induce transactivation | –
CC(C)(Oc1ccc(Cl)cc1)C(=O)O [CFA, clofibric acid] | did not induce transactivation | did not induce transactivation | –
Clc1ccccc1C(c1ccccc1)(c1ccccc1)n1ccnc1 [CTZ, clotrimazole] | – | – | zebrafish PXR up-regulation above controls (zebrafish PXR; exposure concentrations between 0.5 and 50 μM, Milnes et al., 2008, Moore et al., 2000): 8 fold; lower activation of zebrafish full-length PXR compared with zebrafish PXR-LBD construct (zebrafish PXR): 90%; EC50 (hPXR): 880 nM; maximal effect (Emax) hPXR, times that of the control (hPXR; pGL4.24-6xPXRE reporter): 4.8 x-fold; FHM PXR up-regulation (FHM PXR): up to 35 times
O=C(O)Cc1ccccc1Nc1c(Cl)cccc1Cl [DIC, diclofenac] | – | did not induce transactivation | transactivation of hPXR (result in words) (hPXR): did not induce transactivation
C#C[C@]1(O)CC[C@H]2[C@@H]3CCc4cc(O)ccc4[C@H]3CC[C@@]21C [EE2, 17α-ethinyloestradiol] | – | activated | concentration at which transactivation of hPXR was induced (hPXR): 10 µM; transactivation of hPXR (result in words) (hPXR): activate hPXR; concentration at which transactivation of cPXR was induced (cPXR; only concentration giving induction, range 10^-11 to 10^-5 M): 10 µM
Cc1ccc(C)c(OCCCC(C)(C)C(=O)O)c1 [GEM, gemfibrozil] | did not induce transactivation | did not induce transactivation | –
CC(C)Cc1ccc(C(C)C(=O)O)cc1 (stereo not shown) [IBU, ibuprofen] | – | did not induce transactivation | –
CC(=O)N1CCN(c2ccc(OCC3COC(Cn4ccnc4)(c4ccc(Cl)cc4Cl)O3)cc2)CC1 (stereo not shown) [KTZ, ketoconazole] | had no effect | had no effect | –
Clc1ccc(COC(Cn2ccnc2)c2ccc(Cl)cc2Cl)c(Cl)c1 (stereo not shown) [MCZ, miconazole] | induced transactivational activity | – | –
CCCC1COC(Cn2cncn2)(c2ccc(Cl)cc2Cl)O1 (stereo not shown) [PCZ, propiconazole] | induced transactivational activity | induced transactivational activity | EC50 (cPXR): 213 nM
CC(C)NCC(O)COc1cccc2ccccc12 (stereo not shown) [Propranolol, propranolol] | – | – | EC50 (hPXR): 44 nM
CO[C@H]1/C=C/O[C@@]2(C)Oc3c(C)c(O)c4c(O)c(c(/C=N/N5CCN(C)CC5)c(O)c4c3C2=O)NC(=O)/C(C)=C\C=C\[C@H](C)[C@H](O)[C@@H](C)[C@@H](O)[C@@H](C)[C@H](OC(C)=O)[C@@H]1C [RIF, rifampicin] | – | not activated | activation of pufferfish PXR (PXR from the pufferfish): activate; activation of hPXR compared with control, single concentration (hPXR; 1 μM (10^-6 M), pGL4.24-6xPXRE reporter, reporter plasmid comparison): significant activation; maximal effect (Emax) hPXR, times that of the control (hPXR; pGL4.24-6xPXRE reporter): 6.4 x-fold
CC/C(=C(\c1ccccc1)c1ccc(OCCN(C)C)cc1)c1ccccc1 [TAM, tamoxifen] | – | had no effect | toxicity to COS-7 cells (inhibited cell growth) (COS-7 cells): toxic
